Experimental data published in patent US20250324971A1, “HERBICIDAL DERIVATIVES” (SYNGENTA CROP PROTECTION AG, priority 2022, published 2025).

Tests used:
Type in all cases: in vivo
Zea mays (ZEAMX) [1] = assay: Post-Emergence Test (herbicidal, glasshouse pots); conditions: evaluated after 13 days
Procedure: (§1) Seeds of a variety of test species are sown in standard soil in pots (Setaria faberi (SETFA), Ipomoea hederacea (IPOHE), Echinochloa crus-galli (ECHCG), (Amaranthus retoflexus (AMARE), Zea mays (ZEAMX), and Amaranthus palmeri (AMAPA)). After 8 days cultivation under controlled conditions in a glasshouse (at 24° C./16° C., day/night; 14 hours light; 65% humidity), the plants arm sprayed with an aqueous spray solution derived from the formulation of the technical active ingredient in acetone/water (50:50) solution containing 0.5% Tween 20 (polyoxyethylene sorbitan monolaurate, CAS RN 9005-84-5). Rate of application is shown in g/ha in the tables below. The test plants are then grown in a glasshouse under controlled conditions in a glasshouse (at 24° C./16° C., day/night; 14 hours light; 65% humidity) and watered twice daily. After 13 days the test is evaluated for the percentage damage caused to the plant. The biological activities are shown in the following table on a five-point scale (5=81-100%; 4=61-80%; 3=41-60%; 2=21-40%; 1=0-20%; -=not tested).

[2] = test system: Ipomoea hederacea (IPOHE); assay: Post-Emergence Test (herbicidal, glasshouse pots); conditions: evaluated after 13 days
Procedure: as §1

[3] = test system: Amaranthus palmeri (AMAPA); assay: Post-Emergence Test (herbicidal, glasshouse pots); conditions: evaluated after 13 days
Procedure: as §1

[4] = test system: Echinochloa crus-galli (ECHCG); assay: Post-Emergence Test (herbicidal, glasshouse pots); conditions: evaluated after 13 days
Procedure: as §1

[5] = test system: Amaranthus retoflexus (AMARE); assay: Post-Emergence Test (herbicidal, glasshouse pots); conditions: evaluated after 13 days
Procedure: as §1

Zea mays (ZEAMX) [6] = assay: Pre-Emergence Test (herbicidal, glasshouse pots); conditions: rate 1000 g/ha, evaluated after 13 days, five-point scale
[7] = test system: Amaranthus palmeri (AMAPA); assay: Pre-Emergence Test (herbicidal, glasshouse pots); conditions: rate 1000 g/ha, evaluated after 13 days, five-point scale
[8] = test system: Echinochloa crus-galli (ECHCG); assay: Pre-Emergence Test (herbicidal, glasshouse pots); conditions: rate 1000 g/ha, evaluated after 13 days, five-point scale
[9] = test system: Ipomoea hederacea (IPOHE); assay: Pre-Emergence Test (herbicidal, glasshouse pots); conditions: rate 1000 g/ha, evaluated after 13 days, five-point scale
[10] = test system: Amaranthus retoflexus (AMARE); assay: Pre-Emergence Test (herbicidal, glasshouse pots); conditions: rate 1000 g/ha, evaluated after 13 days, five-point scale

Row | Structure (SMILES) | Post-Emergence Test ZEAMX percentage damage (five-point scale) (Zea mays (ZEAMX) [1]; rate 1000 g/ha) | Post-Emergence Test IPHOE percentage damage (five-point scale) ([2]; rate 1000 g/ha) | Post-Emergence Test AMAPA percentage damage (five-point scale) ([3]; rate 1000 g/ha) | Post-Emergence Test ECHCG percentage damage (five-point scale) ([4]; rate 1000 g/ha) | Post-Emergence Test AMARE percentage damage (five-point scale) ([5]; rate 1000 g/ha) | percentage damage caused to the plant, ZEAMX (Zea mays (ZEAMX) [6]) | percentage damage caused to the plant, AMAPA [7] | percentage damage caused to the plant, ECHCG [8] | percentage damage caused to the plant, IPHOE [9] | percentage damage caused to the plant, AMARE [10] | Post-Emergence Test ZEAMX percentage damage (five-point scale) (Zea mays (ZEAMX) [1]; rate 250 g/ha) | Post-Emergence Test IPHOE percentage damage (five-point scale) ([2]; rate 250 g/ha) | Post-Emergence Test AMAPA percentage damage (five-point scale) ([3]; rate 250 g/ha) | Post-Emergence Test ECHCG percentage damage (five-point scale) ([4]; rate 250 g/ha) | Post-Emergence Test AMARE percentage damage (five-point scale) ([5]; rate 250 g/ha)
1 | CCn1c(Nc2cccc(Cl)n2)cc(=O)c(C(=O)O)c1-c1ccc(Cl)c(Cl)c1 [Compound 30, 6-[(6-chloro-2-pyridyl)amino]-2-(3,4-dichlorophenyl)-1-ethyl-4-oxo-pyridine-3-carboxylic acid] | 1 (1=0-20%) | 2 (2=21-40%) | 2 (2=21-40%) | 0 | 2 (2=21-40%) |  |  |  |  |  |  |  |  |  | 
2 | CCn1c(Oc2ccc(Cl)cc2Cl)cc(=O)c(C(=O)O)c1-c1ccc(Cl)c(Cl)c1 [Compound 24, 6-(2,4-dichlorophenoxy)-2-(3,4-dichlorophenyl)-1-ethyl-4-oxo-pyridine-3-carboxylic acid] | 1 (1=0-20%) | 1 (1=0-20%) | 1 (1=0-20%) | 0 | 1 (1=0-20%) |  |  |  |  |  |  |  |  |  | 
3 | CCn1c(Oc2cc(Cl)cc(Cl)c2)cc(=O)c(C(=O)O)c1-c1ccc(Cl)c(Cl)c1 [Compound 16, 6-(3,5-dichlorophenoxy)-2-(3,4-dichlorophenyl)-1-ethyl-4-oxo-pyridine-3-carboxylic acid] | 1 (1=0-20%) | 2 (2=21-40%) | 1 (1=0-20%) | 1 (1=0-20%) | 2 (2=21-40%) |  |  |  |  |  |  |  |  |  | 
4 | CCn1c(Oc2cncc(Cl)c2)cc(=O)c(C(=O)O)c1-c1ccc(Cl)c(Cl)c1 [Compound 13, 6-[(5-chloro-3-pyridyl)oxy]-2-(3,4-dichlorophenyl)-1-ethyl-4-oxo-pyridine-3-carboxylic acid] | 4 (4=61-80%) | 4 (4=61-80%) | 4 (4=61-80%) | 5 (5=81-100%) | 5 (5=81-100%) | 2 (2=21-40%) | 4 (4=61-80%) | 4 (4=61-80%) | 5 (5=81-100%) | 5 (5=81-100%) |  |  |  |  | 
5 | CCn1c(Oc2cccc(F)c2)cc(=O)c(C(=O)O)c1-c1ccc(Cl)c(Cl)c1 [Compound 12, 2-(3,4-dichlorophenyl)-1-ethyl-6-(3-fluorophenoxy)-4-oxo-pyridine-3-carboxylic acid] | 4 (4=61-80%) | 5 (5=81-100%) | 5 (5=81-100%) | 4 (4=61-80%) | 5 (5=81-100%) | 4 (4=61-80%) | 4 (4=61-80%) | 5 (5=81-100%) | 5 (5=81-100%) | 4 (4=61-80%) |  |  |  |  | 
6 | CCn1c(Oc2ccc(Cl)cc2)cc(=O)c(C(=O)O)c1-c1ccc(Cl)c(Cl)c1 [Compound 19, 6-(4-chlorophenoxy)-2-(3,4-dichlorophenyl)-1-ethyl-4-oxo-pyridine-3-carboxylic acid] | 3 (3=41-60%) | 3 (3=41-60%) | 4 (4=61-80%) | 3 (3=41-60%) | 5 (5=81-100%) | 1 (1=0-20%) | 0 | 4 (4=61-80%) | 1 (1=0-20%) | 0 |  |  |  |  | 
7 | CCn1c(Oc2cc(Cl)cc(OC)c2)cc(=O)c(C(=O)O)c1-c1ccc(Cl)c(Cl)c1 [Compound 25, 6-(3-chloro-5-methoxy-phenoxy)-2-(3,4-dichlorophenyl)-1-ethyl-4-oxo-pyridine-3-carboxylic acid] | 0 | 1 (1=0-20%) | 1 (1=0-20%) | 0 | 1 (1=0-20%) |  |  |  |  |  |  |  |  |  | 
8 | CCn1c(Nc2ncc(F)cc2F)cc(=O)c(C(=O)O)c1-c1ccc(Cl)c(Cl)c1 [Compound 31, 2-(3,4-dichlorophenyl)-6-[(3,5-difluoro-2-pyridyl)amino]-1-ethyl-4-oxo-pyridine-3-carboxylic acid] | 0 | 2 (2=21-40%) | 2 (2=21-40%) | 1 (1=0-20%) | 2 (2=21-40%) | 1 (1=0-20%) | 0 | 1 (1=0-20%) | 1 (1=0-20%) | 1 (1=0-20%) |  |  |  |  | 
9 | CCn1c(Oc2ccc(Cl)c(Cl)c2)cc(=O)c(C(=O)O)c1-c1ccc(Cl)c(Cl)c1 [Compound 18, 6-(3,4-dichlorophenoxy)-2-(3,4-dichlorophenyl)-1-ethyl-4-oxo-pyridine-3-carboxylic acid] | 1 (1=0-20%) | 1 (1=0-20%) | 1 (1=0-20%) | 0 | 1 (1=0-20%) | 0 | 0 | 0 | 0 | 0 |  |  |  |  | 
10 | CCn1c(OC)cc(=O)c(C(=O)O)c1-c1ccc(Cl)c(Cl)c1 [Compound 5, 2-(3,4-dichlorophenyl)-1-ethyl-6-methoxy-4-oxo-pyridine-3-carboxylic acid] |  |  |  |  |  |  |  |  |  |  | 2 (2=21-40%) | 3 (3=41-60%) | 0 | 3 (3=41-60%) | 0
11 | CCn1c(Nc2ccc(C3CC3)cc2)cc(=O)c(C(=O)O)c1-c1ccc(Cl)c(Cl)c1 [Compound 22] |  |  |  |  |  | 0 | 0 | 0 | 0 | 1 (1=0-20%) |  |  |  |  | 
12 | CCn1c(Nc2ccccc2F)cc(=O)c(C(=O)O)c1-c1ccc(Cl)c(Cl)c1 [Compound 1, 2-(3,4-dichlorophenyl)-1-ethyl-6-(2-fluoroanilino)-4-oxo-pyridine-3-carboxylic acid] |  |  |  |  |  |  |  |  |  |  | 0 | 2 (2=21-40%) | 1 (1=0-20%) | 0 | 1 (1=0-20%)
13 | CCn1c(Nc2ccc(Cl)cc2F)cc(=O)c(C(=O)O)c1-c1ccc(Cl)c(Cl)c1 [Compound 29, 6-(4-chloro-2-fluoro-anilino)-2-(3,4-dichlorophenyl)-1-ethyl-4-oxo-pyridine-3-carboxylic acid] | 0 | 3 (3=41-60%) | 2 (2=21-40%) | 0 | 2 (2=21-40%) |  |  |  |  |  |  |  |  |  | 
14 | CCn1c(Nc2cccc(C)n2)cc(=O)c(C(=O)O)c1-c1ccc(Cl)c(Cl)c1 [Compound 32, 2-(3,4-dichlorophenyl)-1-ethyl-6-[(6-methyl-2-pyridyl)amino]-4-oxo-pyridine-3-carboxylic acid] | 1 (1=0-20%) | 1 (1=0-20%) | 3 (3=41-60%) | 2 (2=21-40%) | 4 (4=61-80%) |  |  |  |  |  |  |  |  |  | 
